In patent US20230286995A1, “METABOLICALLY STABLE PYRIMIDINYL DIHYDROQUINOXALINONES AS TUBULIN POLYMERIZATION INHIBITORS” (UNIVERSITY OF TENNESSEE RESEARCH FOUNDATION, priority 2022, published 2023):
Entries after “also recorded” stand apart in the source; their conditions may differ. Like-named read-outs stand apart in the source and are kept apart here.

Experiments:
22RV1 xenografts = assay: 22RV1 prostate cancer xenograft model; type: in vivo, NSG mice; conditions: 1 mg/kg IV, 2 times/week
Protocol: FIG. 19D: Similarly, for 22RV1 prostate cancer xenograft model, we inoculated 2.5×10^6 22RV1 cells subcutaneously into the right flank of each mouse. The cells were prepared in the mixture of FBS and phenol red-free DMEM medium and Matrigel (1:1 ratio). […] We measured tumor volume 2 times a week until reaching the study endpoint.

[1] = test system: Mia PaCa-2-Luc xenografts; type: in vivo, NSG mice; conditions: 2 mg/kg i.v., 1 dose/week, 42 days
Protocol: (§1) All animal procedures were performed in accordance with the protocols approved by the Institutional Animal Care and Use Committee (IACUC) at UTHSC. Two pancreatic cancer cell lines, Mia PaCa-2-Luc and PANC-1-Luc, were used in this study. 50 μL of Mia PaCa-2-Luc (5×10^6 cells in HBSS) or PANC-1-Luc (3×10^6 cells in HBSS) cell suspension was mixed with same volume of Matrigel (1:1 mixture) right before use. Cell mixture was subcutaneously injected to the right flank of each NSG mice (male, 6-8 weeks). […] The control group received no treatment. Treatment started when the average tumor size reached 70-100 mm^3. […] Tumor volume and body weight were measured twice per week. Tumor volume was calculated by the equation: volume (mm^3)=0.5×(length×width^2). All animals were euthanized at the end of the study. Tumors were excised, recorded for ex-vivo weight and size, and imaged.

PANC-1-Luc xenografts = assay: PANC-1-Luc subcutaneous xenograft model; type: in vivo, NSG mice
Protocol: as §1

[2] = test system: MDA-MB-231 BrM2 brain metastases; assay: MDA-MB-231-BrM2 brain metastasis model, survival study (Experiment 2); type: in vivo, NSG mice
Mia PaCa-2 cells = assay: Scratch migration assay (PDAC); type: cell-based, human; conditions: 5m 2 nM, PTX 4 nM, 48 h
Protocol: The Mia PaCa-2 cells (25,000 cells/well) were seeded in 96-well plates and allowed to adhere overnight. At 80-90% confluence, scratch was made with a wound maker. After washing off the debris, medium was replaced and tested compounds were added. Cells were live monitored with IncuCyte and pictures obtained every 2 h. Compared with the control, the wound width of cells under different treatment conditions was quantified according to the endpoint width over starting point.

[3] = test system: PANC-1 and Mia PaCa-2 cell lines; assay: Cell cycle analysis (PDAC); type: cell-based, human
Protocol: The cells were plated in 100-mm dishes at a concentration of 1-2×10^6 cells/dish in DMEM without serum. After serum starvation for 24 h, medium was replaced with complete culture medium containing tested compounds. For cell cycle analysis, the cells were trypsinized and fixed with 70% ethanol in −20° C. overnight. The fixed cells were incubated with 100 μg/mL of RNase A and 50 μg/mL propidium iodide for 30 min at room temperature. Stained cells were analyzed using Bio-Rad ZE5 and ModFit LT 5.0.9 software at Flow cytometry and cell sorting core at the University of Tennessee Health Science Center (UTHSC) and the proportion of G1, S, G2/M phases were determined.

[4] = test system: MDA-MB-231 BrM2 brain metastases
in vitro = conditions: rat, liver microsomes
[5] = Microsomal stability assay; conditions: Table 3; liver microsomes; mean (% CV)
[6] = test system: A2780/TxR ovarian cancer xenografts; assay: Orthotopic A2780/TxR ovarian cancer xenograft model; conditions: 5m 1 mg/kg IV; Compound 17ya 20 mg/kg PO; 3 weeks
DU-145/TxR = assay: Cytotoxicity assay (MTS, 72 h); type: cell-based; conditions: Homo sapiens, DU-145, read-out: IC50 ± SEM (nM) DU-145/TxR; Table 2
PC3 = assay: Cytotoxicity assay (MTS, 72 h); type: cell-based; conditions: Homo sapiens, PC-3; Table 6; read-out: IC50 (nM) Prostate cancer PC3
Description: Cytotoxicity Assay. […] Each experiment consisted of four replicates.

PC3/TxR = assay: Cytotoxicity assay (MTS, 72 h); type: cell-based; conditions: Homo sapiens, Table 6, paclitaxel-resistant, read-out: IC50 (nM) Prostate cancer PC3/TxR
porcine brain tubulin = biological target: T1, porcine brain tubulin (Sus scrofa, UniProt P02550+P02554); assay: Tubulin polymerization inhibitory assay (FIG. 29A); type: biochemical; conditions: 10 μM, 37° C.; DMSO control 0.3
T1 construct: tubulin mixture containing porcine brain tubulin (3 mg/mL); purchased Cytoskeleton, Inc. T-238P; host or cells: porcine brain
Protocol: Tubulin polymerization inhibitory assay: In vitro tubulin polymerization assay was carried out according to the manufacturers' instructions (Cytoskeleton). Briefly, 10 μM of 5v was added into tubulin protein (3 mg/mL, purity>99%), and the mixture was transferred into a microplate reader and incubated at 37° C. […] Colchicine and paclitaxel were used as positive controls. […] The assay was carried out in duplicate.

A375/TxR cells = assay: Cell cycle analysis (PI, flow cytometry); type: cell-based, human; conditions: 5v 1, 2, 5 nM, 24 h
A375 = assay: Cytotoxicity assay (MTS, 72 h); conditions: Homo sapiens;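 further: compounds tested from 0.1 nM up to 3 µM in four replicate wells, with absorbance read at 490 nm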

T1 sequence (P02550 whole entry): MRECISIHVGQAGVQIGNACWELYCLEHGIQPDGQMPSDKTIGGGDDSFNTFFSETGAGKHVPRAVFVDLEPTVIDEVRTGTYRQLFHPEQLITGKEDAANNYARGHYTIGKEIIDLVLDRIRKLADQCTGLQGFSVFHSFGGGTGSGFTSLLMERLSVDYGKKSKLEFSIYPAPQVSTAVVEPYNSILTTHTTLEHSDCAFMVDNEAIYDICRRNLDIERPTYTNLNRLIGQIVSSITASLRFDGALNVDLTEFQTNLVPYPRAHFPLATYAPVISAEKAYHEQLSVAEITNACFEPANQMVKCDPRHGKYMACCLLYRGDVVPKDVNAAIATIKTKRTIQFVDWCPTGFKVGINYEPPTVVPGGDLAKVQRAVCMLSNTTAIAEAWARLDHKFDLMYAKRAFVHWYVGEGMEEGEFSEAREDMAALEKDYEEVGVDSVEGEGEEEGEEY
T1 sequence (P02554 whole entry): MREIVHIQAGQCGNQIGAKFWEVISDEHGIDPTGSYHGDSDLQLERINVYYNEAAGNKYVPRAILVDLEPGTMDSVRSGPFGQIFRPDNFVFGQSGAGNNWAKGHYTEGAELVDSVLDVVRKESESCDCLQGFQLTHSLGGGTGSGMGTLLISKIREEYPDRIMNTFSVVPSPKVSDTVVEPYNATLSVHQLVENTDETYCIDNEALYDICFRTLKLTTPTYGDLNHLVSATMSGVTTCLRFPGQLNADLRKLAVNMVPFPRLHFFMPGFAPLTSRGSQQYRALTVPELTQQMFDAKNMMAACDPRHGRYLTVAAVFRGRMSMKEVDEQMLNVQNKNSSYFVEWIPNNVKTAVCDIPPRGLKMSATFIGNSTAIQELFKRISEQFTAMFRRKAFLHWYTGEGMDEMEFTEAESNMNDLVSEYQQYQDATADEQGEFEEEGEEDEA

COc1ccc2c(c1)NC(=O)CN2c1nc(C)nc2c1CCC2 [Compound 5m, 7-methoxy-4-(2-methyl-6,7-dihydro-5H-cyclopenta[d]pyrimidin-4-yl)-3,4-dihydroquinoxalin-2(1H)-one]
growth of 22RV1 xenografts (22RV1 xenografts): remarkable in inhibiting the growth of 22RV1 xenografts
reduction of tumor growth vs control [1]: 70-80%
xenograft tumor growth (PANC-1-Luc xenografts; 1 mg/kg or 2 mg/kg i.v., 1 dose/week for 7 weeks): dose-dependent and significant inhibition of xenograft tumor growth; also recorded: dose-dependently inhibited xenograft tumor growth
body weight vs control (PANC-1-Luc xenografts; 49 days, two doses): no differences seen in body weight
median survival ([2]; 1.0 mg/kg IV twice per week, vehicle 25 days): 36.5 days
body weight ([2]; Experiment 2): gained weight through day 21 of dosing
survival of all treated mice ([2]; all vehicle mice deceased by 30 days): > 30 days
increased metastasis (photon flux) in vehicle vs 5m treated representative mouse ([2]; day 28, n=1): 6.7 fold
metastatic progression in the brain, in vivo photon flux ([2]; mouse, in vivo): delayed metastatic progression in the brain
day until which representative treated mouse lived ([2]; vehicle mouse died on day 28): 35 days
cell migration / wound healing (Mia PaCa-2 cells): more effectively inhibited wound healing
cell cycle arrest at G2/M phase [3]: dose dependently increase the proportion of cells in G2/M phase
photon flux in ex vivo brain of representative animal ([4]; 1 minute capture, vehicle 6.01×10^7): 1.51×10^7 p/s
body weight ([4]; Experiment 1): maintain body weight through day 24
extracranial metastasis, ex vivo photon flux ([4]; bone, lungs, spleen): statistically reduced metastasis to bone, lungs, and spleen
adverse effects at initial dose ([4]; mouse, in vivo): mice lost weight and had diarrhea
CLint scaled at 1 μg/mL (in vitro): 86.9 mL/min/kg
Metabolic stability in mouse t1/2 [5]: 14.4 min
mice having visible tumor [6]: 1 of 5

CCNc1nc2c(c(N3CC(=O)Nc4cc(OC)ccc43)n1)CCC2 [Compound 5v, 4-(2-(ethylamino)-6,7-dihydro-5H-cyclopenta[d]pyrimidin-4-yl)-7-methoxy-3,4-dihydroquinoxalin-2(1H)-one]
IC50 (DU-145/TxR): 1.9 ± 0.3 nM
IC50 (PC3): 1.7 ± 0.1 nM
IC50 (PC3/TxR): 0.8 ± 0.1 nM
A340 at which tubulin assembly stabilized (porcine brain tubulin): approximately 0.05
G2/M phase arrest (A375/TxR cells): arrested in the G2/M phase to increase dramatically
IC50 (A375; A-375, read-out: IC50 (nM) Melanoma A375, Table 1): 0.7 ± 0.1 nM
IC50 (A375; A-375, read-out: IC50 (nM) Melanoma Cancer A375, Table 6): ~1.6 nM
IC50 (A375; A-375, read-out: IC50 ± SEM (nM) A375, Table 2): 0.4 ± 0.04 nM
